{
  "source": "patent US8987217B2",
  "about": "“Modified saponins for the treatment of fungal infections” (The General Hospital Corporation, priority 2010, dated 2015)",
  "key": {"C. albicans DAY185": {"tested_on": "C. albicans DAY185", "assay": "NaCl induced osmotic stress growth assay", "format": "cell-based", "details": "2 μg/mL A16; untreated control 1.25 M", "experimental": "(§1) Caspofungin (Merck) served as a known antifungal compound control. In vitro hyphal inhibition was assessed by incubation of DAY185 in RPMI 1640 media at 37° C. After 48 hours the cultures were visually inspected for hyphal formation by microscopy. The ability of the antifungal compound A16, at either 2 or 4 μg/mL, to induce osmotic stress was assessed using DAY185 grown in a 96 well microtiter plate containing RPMI 1640 media and NaCl, ranging in concentrations from 0-2 M in 0.25 M increments. The growth of the fungus was measured spectrophotometrically after 48 hours of growth at 35° C.\nThe C. albicans cell wall and membrane are important for osmoregulation to maintain proper physiological conditions to carryout enzymatic reactions. Since saponins are able to disrupt the fungal cell membrane, external osmotic stress should also have detrimental effects on the fungal cell. C. albicans was grown in the presence of 2 μg/mL of compound A16 under various salt concentrations to assess the effect the saponin has on salt induced osmotic stress."}, "C. albicans biofilm": {"tested_on": "C. albicans biofilm", "assay": "biofilm formation on silicone pads (dry mass)", "format": "cell-based", "details": "10 μg/mL (below the MIC), compared with caspofungin", "experimental": "The minimal inhibitory concentration (MIC) was determined for strains DAY185, 98-145, 95-120 (White et al., Antimicrob Agents Chemother, 46:1704-1713 (2002)), and A15-10 (Garcia-Effron et al., Antimicrob Agents Chemother, 53:112-122 (2009)) spectrophotometrically using RPMI 1640 media (Mediatech, Inc.) following the standard CLSI microdilution protocol M27-A (National Committee for Clinical Laboratory Standards, Reference method for broth dilution susceptibility testing of yeasts. Tentative standard M27-A, Villanova, Pa. (1995)). Biofilm assays using identified compounds were conducted as previously described (Richard et al., Eukaryot Cell, 4:1493-1502 (2005)). The biofilm dry mass was determined by drying the silicone squares in a chemical hood, and weighing the resulting biofilm mass subtracting the previously weighed mass of the silicone square. […]\nas §1, with “After 48 hours the cultures were visually inspected for hyphal formation by microscopy.” left out"}, "C. albicans": {"tested_on": "C. albicans", "assay": "C. elegans-C. albicans co-inoculation assay, nematode survival", "format": "in vivo", "experimental": "(§2) The procedure for the co-inoculation antifungal compound screen were conducted as previously described (Okoli et al., PLoS ONE, 4:e7025 (2009); Tampakakis et al., Nat Protocols, 3:1925-1931 (2008)), using the C. albicans strain DAY185 (Davis et al., Infect Immun, 68:5953-5959 (2000)) and the C. elegans glp-4;sek-1 double mutant.\nThis assay allows simultaneous assessment of a compound's potential toxicity and the ability to promote the survival of the nematode in the presence of C. albicans, including modes of action not traditionally considered in antifungal assays such as impeding a fungal virulence factor or promoting host immune response. We performed a screen of 2,560 natural products representing a fraction of the Analyiticon Discovery compound collection (ac-discovery.com) housed at the Broad Institute of Harvard and MIT (Cambridge, Mass.). […] These natural products identified in the primary screen were retested and confirmed (FIG. 1; Table 1). […] Moreover, although the antifungal effects of some of these saponins have been reported (Sata et al., Biosci Biotechnol Biochem, 62:1904-1911 (1998); Ohtani et al., Phytochem, 33:83-86 (1993)), their efficacy against Candida spp. has not been studied.\nAfter confirmation of these hits, dose response experiments were conducted to determine the concentration that provided maximum nematode survival. The compounds conferred a range of nematode survival from 27% (compound A6) to 93% (compounds A2, A7, A24, and A25), however, with the exception of A6, all compounds conferred a nematode survival over 65% (FIG. 1)."}, "C. albicans cells": {"tested_on": "C. albicans cells", "assay": "photosensitizer uptake by fluorescence spectrofluorimetry", "format": "cell-based", "details": "addition of A16 to RB, ce6, PEI-ce6", "experimental": "In order to confirm that the increase in phototoxicity observed by combining the different PS with A16 is actually due to an increase of cellular uptake of the PS by the cells and to document that the antifungal efficacy of saponins against C. albicans is associated with increased permeability, the amount of dye within the cell was measured by fluorescence spectrofluorimetry.\nCell suspensions (10^8 cells/mL) were incubated in the dark as above using the same concentrations as for the PDI assays measured as μM PS equivalent (final concentration in incubation medium). Incubations were carried out in triplicate. Cell suspensions were centrifuged (12000 rpm, 1 min) and washed twice in 1 mL sterile PBS. The cell pellet was dissolved in 1.5 mL 0.1 M NaOH/1% SDS for 24 h to yield a homogenous solution. Uptake was determined by measurement of fluorescence in black 96-well flat-bottom plates (Costar) in a final volume of 200 μL using a Spectramax Gemini spectrofluorimeter (Molecular Devices) at 400 nmex/580-700 nmem for ce6, PEI-ce6 and 552 nmex/555-620 nmem for RB. Uptake values were obtained as previously described (Tegos et al., Antimicrob Agents Chemother, 50:196-203(2006)).\nThe cellular uptake of dye can be expressed as molecules per cell by correlation of the extracted PS concentration with the number of C. albicans cells present."}, "[1]": {"tested_on": "C. albicans DAY185 hyphae", "assay": "in vitro hyphal inhibition in RPMI 1640", "format": "cell-based", "experimental": "as §1\nC. albicans biofilms are composed of hyphae, pseudohyphae, yeast cells, and an extracellular matrix, where the hyphae play an integral role within this complex. In order to address the reduction in biofilm formation in the presence of saponins, we tested the ability of compound A16 to inhibit hyphae formation at various concentrations in RPMI."}, "[2]": {"tested_on": "C. albicans strain DAY185", "assay": "in vitro antifungal activity (MIC) in the co-inoculation assay, turbidity read visually", "format": "cell-based", "details": "co-inoculation assay, two-fold serial dilutions, C. albicans DAY185", "experimental": "as §2\nThe determination of the lowest concentration of the selected compounds showing in vitro antifungal activity was accomplished by following the steps detailed in the co-inoculation assay, using two-fold serial dilutions of the test compounds."}},
  "data": [
    {"smiles": "CC1CC[C@@]2(OC1)O[C@H]1CC3C4C[C@@H](O)C5C[C@@H](O[C@@H]6O[C@H](CO)[C@H](O[C@@H]7O[C@H](CO)[C@@H](O)[C@H](O[C@@H]8OC[C@@H](O)[C@H](O)[C@H]8O)[C@H]7O[C@@H]7O[C@H](CO)[C@@H](O)[C@H](O)[C@H]7O)[C@H](O)[C@H]6O)[C@H](O)C[C@]5(C)C4CC[C@]3(C)[C@H]1[C@@H]2C", "note": "(some centres unmarked) [A16, Aginoside]", "values": [
      {"measurement": "NaCl concentration at which the fungus was unable to grow", "setting": "C. albicans DAY185", "result": 0.5, "unit": "M"},
      {"measurement": "biofilm formation", "setting": "C. albicans biofilm", "result": "able to inhibit biofilm formation"},
      {"measurement": "maximum nematode survival", "setting": "C. albicans; dose response, C. albicans-infected C. elegans", "result": 67, "unit": "%"},
      {"measurement": "EC50 in vivo", "setting": "C. albicans; dose that resulted in 50% survival of C. albicans-infected nematodes", "result": 47.0, "unit": "µg/mL"},
      {"measurement": "effect on uptake of PS by the cells", "setting": "C. albicans cells", "result": "dramatically increased the uptake of PS"},
      {"measurement": "hyphae formation", "setting": "[1]; 1 μg/mL", "result": "visible reduction in the number of hyphae"},
      {"measurement": "hyphae formation", "setting": "[1]; 2 μg/mL", "result": "very few hyphae formed"},
      {"measurement": "MIC in vitro", "setting": "[2]", "result": 47.0, "unit": "µg/mL"}
    ]}
  ]
}
